Assay results: article PMC5680195, “Structural basis of small molecule ATPase inhibition of a human mitotic kinesin motor protein” (Scientific Reports, 2017)

Experiments:
[1] = target: T1, KIFC3 (Homo sapiens, UniProt Q9BVG8); assay: X-ray crystal structure, […] A; settings: Mg2+; nucleotide-binding cleft; no added nucleotide stated; pH 7.5; 18 °C
T1 construct: motor domain K443-L770, p28a-LIC (EF442785 is printed beside the vector), E. coli BL21-CodonPlus (DE3)-RIL, HisTrap purified
T1 sequence (Q9BVG8 443-770): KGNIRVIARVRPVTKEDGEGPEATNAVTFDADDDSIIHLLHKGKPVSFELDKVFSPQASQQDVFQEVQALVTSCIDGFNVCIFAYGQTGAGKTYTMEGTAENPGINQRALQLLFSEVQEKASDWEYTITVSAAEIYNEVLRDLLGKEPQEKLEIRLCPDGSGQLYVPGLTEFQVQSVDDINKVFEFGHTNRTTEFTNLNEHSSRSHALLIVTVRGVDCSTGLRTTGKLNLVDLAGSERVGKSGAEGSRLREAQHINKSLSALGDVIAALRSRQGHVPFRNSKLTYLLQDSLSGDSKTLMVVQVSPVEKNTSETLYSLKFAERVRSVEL

[2] = target: T2, KIFC1 (Homo sapiens, UniProt Q9BW19, T368P); assay: X-ray crystal structure, […] A; settings: Mg2+; nucleotide-binding cleft; 5-fold molar excess Mg-ADP added; pH 7.5; 18 °C
T2 construct: motor domain N307-C663 with PCR-induced T368P (loop L2, disordered), pFBOH-LIC, Hi-Five insect cells, Ni-NTA purified
T2 sequence (Q9BW19 307-663 T368P): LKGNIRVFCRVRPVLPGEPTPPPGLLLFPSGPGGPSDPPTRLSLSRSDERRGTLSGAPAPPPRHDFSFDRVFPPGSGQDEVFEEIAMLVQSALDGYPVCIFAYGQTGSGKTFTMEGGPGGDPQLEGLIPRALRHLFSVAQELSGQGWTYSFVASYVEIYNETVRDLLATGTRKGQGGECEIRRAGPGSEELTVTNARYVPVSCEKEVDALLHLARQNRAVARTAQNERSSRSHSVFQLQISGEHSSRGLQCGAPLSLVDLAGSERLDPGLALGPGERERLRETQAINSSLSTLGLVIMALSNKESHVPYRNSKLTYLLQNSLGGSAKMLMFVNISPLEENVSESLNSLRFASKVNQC

**Q.** For `Nc1ncnc2c1ncn2[C@@H]1O[C@H](COP(=O)(O)OP(=O)(O)O)[C@@H](O)[C@H]1O` [ADP], which “X-ray crystal structure, 1.85 A” value [1] is on record?
**A.** Its value is “Both proteins were crystallized bound to Mg-ADP and are reported here for the first time”.

**Q.** And the “X-ray crystal structure, 2.25 A” value [2]?
**A.** Its value is “Both proteins were crystallized bound to Mg-ADP and are reported here for the first time”.
